Measured values taken from US11512053B2, “Arginine methyltransferase inhibitors and uses thereof” (priority 2013, dated 2022).
Where two headings read alike, the source gives them in different places.

Molecular target: full-length human PRMT6 (Flag- and His-tagged) (Homo sapiens, UniProt Q96LA8)
Assay: PRMT6 Biochemical Assay (3H-SAM Flashplate, peptide substrate)
Details: read-out: Biochemical IC50 PRMT6
Summary of the method: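 Flag/His-tagged full-length human PRMT6 (1 nM) preincubated with compound 30 min at room temperature in Bicine pH 7.6 buffer, then reaction started with 3H-SAM 200 nM plus unlabeled SAM 250 nM and biotinylated H4 36-50 peptide (K44me1) 75 nM; 2% DMSO. Quenched with 400 uM cold SAM; labeled peptide captured on streptavidin Flashplate, counted; % inhibition vs DMSO and 1 mM SAH controls fit by 3- or 4-parameter curve.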

[1] = single experiment or average of multiple experiments

Sequence of full-length human PRMT6 (Flag- and His-tagged) (Q96LA8 with tags, fused parts or gaps): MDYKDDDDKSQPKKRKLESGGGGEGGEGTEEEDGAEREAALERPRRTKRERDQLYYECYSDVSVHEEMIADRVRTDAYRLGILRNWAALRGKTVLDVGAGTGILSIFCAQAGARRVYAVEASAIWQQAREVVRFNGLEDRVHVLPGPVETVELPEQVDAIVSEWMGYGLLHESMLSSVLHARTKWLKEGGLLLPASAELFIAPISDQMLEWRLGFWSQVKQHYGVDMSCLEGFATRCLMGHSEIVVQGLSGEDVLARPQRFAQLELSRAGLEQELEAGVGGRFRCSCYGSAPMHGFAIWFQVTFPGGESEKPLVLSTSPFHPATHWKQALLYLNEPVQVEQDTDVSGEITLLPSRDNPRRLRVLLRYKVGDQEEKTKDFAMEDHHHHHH

Structure (SMILES) | IC50 | IC50 [1]
CCN(C(=O)CC1CCOCC1)[C@H]1CC[C@H](c2n[nH]cc2CN(C)CCNC)CC1 [Compound 195] | < 0.1 µM | 0.0517 µM
CNCCN(C)Cc1c[nH]nc1[C@H]1CC[C@@H](C(=O)NCCC(C)C)CC1 [Compound 204] | < 0.1 µM | 0.0636 µM
CNCCN(C)Cc1c[nH]nc1[C@H]1CC[C@H](C(=O)N(C)CCOc2ccccc2)CC1 [Compound 258] | < 0.1 µM | 0.018 µM
CNCCN(C)Cc1c[nH]nc1[C@H]1CC[C@H](N(CCOc2ccccc2)C(=O)CCCOC)CC1 [Compound 229] | < 0.1 µM | 0.0291 µM
CNCCN(C)Cc1c[nH]nc1[C@H]1CC[C@@]2(CCC(C)(C)O2)CC1 [Compound 260] | < 0.1 µM | 0.0831 µM
CNCCN(C)Cc1c[nH]nc1[C@H]1CC[C@H](C(=O)N(C)CC(C)C)CC1 [Compound 226] | < 0.1 µM | 0.0415 µM
CNCCN(C)Cc1c[nH]nc1C1C[C@H](C(=O)N(C)CC(C)C)C(C)(C)[C@H](C(=O)N(C)CC(C)C)C1 (stereo partly shown) [Compound 267] | 3.01 to 10 µM | ≥ 10 µM
CNCCN(C)Cc1c[nH]nc1[C@H]1CC[C@@H](C(=O)N(CCCOC)CCC(C)C)CC1 [Compound 214] | < 0.1 µM | 0.0505 µM
CCC(=O)N(CCOc1ccccc1)[C@H]1CC[C@H](c2n[nH]cc2CN(C)CCNC)CC1 [Compound 221] | < 0.1 µM | 0.0192 µM
CNCCN(C)Cc1c[nH]nc1[C@H]1CC[C@]2(CCCO2)OC1 [Compound 198] | 3.01 to 10 µM | 8.54 µM
CN(CCN)Cc1c[nH]nc1[C@H]1CC[C@]2(CC1)CC(C)(C)CO2 [Compound 208] | < 0.1 µM | 0.0453 µM
CNCCN(C)Cc1c[nH]nc1[C@H]1CC[C@@H](N(CCCOC)C(=O)CCC(C)C)CC1 [Compound 244] | < 0.1 µM | 0.0548 µM
CNCCN(C)Cc1c[nH]nc1[C@H]1CC[C@]2(CCOC2(C)C)CC1 [Compound 253] | < 0.1 µM | 0.0134 µM
CNCCN(C)Cc1c[nH]nc1[C@H]1CC[C@@H](N(CCC(C)C)C(=O)CCOC)CC1 [Compound 235] | < 0.1 µM | 0.0341 µM
CNCCN(C)Cc1c[nH]nc1[C@H]1CC[C@@H](N(CC(C)C)C(=O)CCOc2ccccc2)CC1 [Compound 231] | < 0.1 µM | 0.0147 µM
CNCCN(C)Cc1c[nH]nc1[C@H]1CC[C@@H](C(=O)N(C)CCOc2ccccc2)CC1 [Compound 259] | < 0.1 µM | 0.0331 µM
CNCCN(C)Cc1c[nH]nc1[C@H]1CC[C@H](C(=O)N(CCCOC)CCC(C)C)CC1 [Compound 213] | < 0.1 µM | 0.0913 µM
CNCCN(C)Cc1c[nH]nc1[C@H]1CC[C@H](C(=O)N(C)CCC(C)C)CC1 [Compound 209] | < 0.1 µM | 0.0521 µM
CNCCN(C)Cc1c[nH]nc1[C@H]1CC[C@@H](C(=O)NCCOc2ccccc2)CC1 [Compound 212] | < 0.1 µM | 0.0136 µM
CNCCN(C)Cc1c[nH]nc1C1CCC(C)(C)[C@@H](C(=O)OC)C1 (stereo partly shown) [Compound 255] | < 0.1 µM | 0.0276 µM
CNCCN(C)Cc1c[nH]nc1[C@H]1CC[C@H](N(CCOC)C(=O)CCOc2ccccc2)CC1 [Compound 230] | < 0.1 µM | 0.0231 µM
CNCCN(C)Cc1c[nH]nc1[C@H]1CC[C@H](N(CCOC)C(=O)CCC(C)C)CC1 [Compound 254] | < 0.1 µM | 0.0176 µM
CNCCN(C)Cc1c[nH]nc1[C@H]1CC[C@H](N(CCC(C)C)C(=O)CCOC)CC1 [Compound 236] | < 0.1 µM | 0.0624 µM
